From patent US12350270B2, “Antimalarial agents” (Merck Sharp & Dohme LLC, priority 2019, dated 2025)

The compounds below were run on parasites (ring stage, in human red blood cell culture) (assay: Parasite LDH growth assay (antiparasite potency, Parasite Assay)). Conditions: 0.7% rings, 2% haematocrit, 72 hours at 37° C., LDH readout of parasite growth.
Format: cell-based, Plasmodium falciparum
Summary of the method: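 Ring-stage parasites at 0.7% parasitemia and 2% haematocrit, in RPMI-Hepes/bicarbonate with 5% heat-inactivated human serum and 0.5% albumax, were added to compound-containing medium. Cultures grew 72 h at 37 °C in gassed humidified boxes. Plates were then frozen overnight at −80 °C, thawed 4 h, and growth was measured by LDH assay.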
`COCC1(C)Oc2ccc(C(=O)N[C@@H]3c4ccccc4OC(C)(C)[C@H]3O)cc2C1N1C(=N)NC(C)(C)CC1=O` (stereo partly drawn) [Example 256, N-[(3S,4R)-3-hydroxy-2,2-dimethyl-chroman-4-yl]-3-(2-imino-4,4-dimethyl-6-oxo-hexahydropyrimidin-1-yl)-2-(methoxymethyl)-2-methyl-3H-benzofuran-5-carboxamide] gave an EC50 of 8.9 nM. With `COCC1(C)Oc2ccc(C(=O)N[C@@H]3c4ccccc4OC(C)(C)[C@H]3O)cc2C1N1C(=N)NC(C)(C)CC1=O` (stereo partly drawn) [Example 257, N-[(3S,4R)-3-hydroxy-2,2-dimethyl-chroman-4-yl]-3-(2-imino-4,4-dimethyl-6-oxo-hexahydropyrimidin-1-yl)-2-(methoxymethyl)-2-methyl-3H-benzofuran-5-carboxamide] the EC50 was 189 nM. In the case of `CCOC(=O)C1(C)Oc2ccccc2C1NC(=O)c1ccc2c(c1)[C@H](N1C(=N)NC(CC)(CC)CC1=O)CCO2` (stereo partly drawn) [Example 275, ethyl 3-[[(4R)-4-(4,4-diethyl-2-imino-6-oxo-hexahydropyrimidin-1-yl)chromane-6-carbonyl]amino]-2-methyl-3H-benzofuran-2-carboxylate], the EC50 is reported as 25.7 nM.

Same assay, conditions: Plasmodium falciparum, Erythrocyte, 72 h, 0.7% rings, 2% haematocrit, 72 hours at 37° C., LDH readout of parasite growth
In the case of `CCC1(CC)CC(=O)N([C@H]2c3cc(C(=O)N[C@@H]4c5ccccc5CC[C@H]4O)ccc3O[C@@]2(C)COC)C(=N)N1` [Example 249, (2R,3S)-3-(4,4-diethyl-2-imino-6-oxo-hexahydropyrimidin-1-yl)-N-[(1R,2R)-2-hydroxytetralin-1-yl]-2-(methoxymethyl)-2-methyl-3H-benzofuran-5-carboxamide], the EC50 is reported as 1.1 nM. In the case of `CCC1(CC)CC(=O)N([C@H]2c3cc(C(=O)N[C@H]4c5ccccc5CC[C@@H]4O)ccc3O[C@@]2(C)COC)C(=N)N1` [Example 250, (2R,3S)-3-(4,4-diethyl-2-imino-6-oxo-hexahydropyrimidin-1-yl)-N-[(1S,2S)-2-hydroxytetralin-1-yl]-2-(methoxymethyl)-2-methyl-3H-benzofuran-5-carboxamide], the EC50 is reported as 219 nM. `CC[C@]1(C)CC(=O)N([C@H]2c3cc(C(=O)N[C@@H]4c5ccccc5OC[C@@]4(C)O)ccc3OC[C@@H]2COC)C(=N)N1` [Example 252, (3S,4R)-4-[(4R)-4-ethyl-2-imino-4-methyl-6-oxo-hexahydropyrimidin-1-yl]-N-[(3S,4R)-3-hydroxy-3-methyl-chroman-4-yl]-3-(methoxymethyl)chromane-6-carboxamide] was tested, and the EC50 was 2.1 nM. `CCC1(CC)CC(=O)N([C@H]2c3cc(C(=O)N[C@@H]4c5ccccc5OC[C@]4(C)O)ccc3OC[C@@H]2OC)C(=N)N1` [Example 253, (3R,4S)-4-(4,4-diethyl-2-imino-6-oxo-hexahydropyrimidin-1-yl)-N-[(3R,4R)-3-hydroxy-3-methyl-chroman-4-yl]-3-methoxy-chromane-6-carboxamide] showed an EC50 of 4.3 nM. `CCC1(CC)CC(=O)N([C@H]2c3cc(C(=O)N[C@@H]4c5ccccc5OC[C@@]4(C)O)ccc3OC[C@@H]2OC)C(=N)N1` [Example 254, (3R,4S)-4-(4,4-diethyl-2-imino-6-oxo-hexahydropyrimidin-1-yl)-N-[(3S,4R)-3-hydroxy-3-methyl-chroman-4-yl]-3-methoxy-chromane-6-carboxamide] was tested, and the EC50 was 3.4 nM. With `CC[C@]1(C)CC(=O)N([C@H]2c3cc(C(=O)N[C@@H]4c5ccccc5OC(C)(C)[C@H]4O)ccc3OC[C@@H]2OC)C(=N)N1` [Example 255, (3R,4S)-4-[(4R)-4-ethyl-2-imino-4-methyl-6-oxo-hexahydropyrimidin-1-yl]-N-[(3S,4R)-3-hydroxy-2,2-dimethyl-chroman-4-yl]-3-methoxy-chromane-6-carboxamide] the EC50 was 3.3 nM. `CCC1(CC)CC(=O)N([C@@H]2CCS(=O)(=O)c3ccc(C(=O)N[C@@H]4c5ccccc5C[C@@]4(C)O)cc32)C(=N)N1` [Example 260, (4R)-4-(4,4-diethyl-2-imino-6-oxo-hexahydropyrimidin-1-yl)-N-[(1R,2R)-2-hydroxy-2-methyl-indan-1-yl]-1,1-dioxo-3,4-dihydro-2H-thiochromene-6-carboxamide] was tested, and the EC50 was 8.2 nM. In the case of `CCC1(CC)CC(=O)N([C@H]2CCS(=O)(=O)c3ccc(C(=O)N[C@@H]4c5ccccc5C[C@@]4(C)O)cc32)C(=N)N1` [Example 261, (4S)-4-(4,4-diethyl-2-imino-6-oxo-hexahydropyrimidin-1-yl)-N-[(1R,2R)-2-hydroxy-2-methyl-indan-1-yl]-1,1-dioxo-3,4-dihydro-2H-thiochromene-6-carboxamide], the EC50 is reported as 133 nM. `CCC1(CC)CC(=O)N([C@@H]2CCS(=O)(=O)c3ccc(C(=O)N[C@@H]4c5ccccc5C[C@]4(C)O)cc32)C(=N)N1` [Example 262, (4R)-4-(4,4-diethyl-2-imino-6-oxo-hexahydropyrimidin-1-yl)-N-[(1R,2S)-2-hydroxy-2-methyl-indan-1-yl]-1,1-dioxo-3,4-dihydro-2H-thiochromene-6-carboxamide] gave an EC50 of 7.4 nM. In the case of `CCC1(CC)CC(=O)N([C@H]2CCS(=O)(=O)c3ccc(C(=O)N[C@@H]4c5ccccc5C[C@]4(C)O)cc32)C(=N)N1` [Example 263, (4S)-4-(4,4-diethyl-2-imino-6-oxo-hexahydropyrimidin-1-yl)-N-[(1R,2S)-2-hydroxy-2-methyl-indan-1-yl]-1,1-dioxo-3,4-dihydro-2H-thiochromene-6-carboxamide], the EC50 is reported as 74.8 nM. `CCC1(CC)CC(=O)N([C@@H]2CCOc3ccc(C(=O)NC(CCc4ccccc4)c4ccccc4)cc32)C(=N)N1` (stereo partly drawn) [Example 264, (4R)-4-(4,4-diethyl-2-imino-6-oxo-hexahydropyrimidin-1-yl)-N-(1,3-diphenylpropyl)chromane-6-carboxamide] gave an EC50 of 3.3 nM. For `CC1(C)CC(=O)N([C@@H]2CCS(=O)(=O)c3ccc(C(=O)N[C@@H]4c5ccccc5OC(C)(C)[C@H]4O)cc32)C(=N)N1` [Example 265, (4R)-N-[(3S,4R)-3-hydroxy-2,2-dimethyl-chroman-4-yl]-4-(2-imino-4,4-dimethyl-6-oxo-hexahydropyrimidin-1-yl)-1,1-dioxo-3,4-dihydro-2H-thiochromene-6-carboxamide], the EC50 was 31.1 nM. `CCC1(CC)CC(=O)N([C@@H]2CCOc3ccc(C(=O)N[C@@H]4c5cc(Cl)ccc5OC[C@@]4(C)O)cc32)C(=N)N1` [Example 266, (4R)-N-[(3S,4R)-6-chloro-3-hydroxy-3-methyl-chroman-4-yl]-4-(4,4-diethyl-2-imino-6-oxo-hexahydropyrimidin-1-yl)chromane-6-carboxamide] showed an EC50 of 2.6 nM. In the case of `CC[C@]1(C)CC(=O)N([C@@H]2CCOc3ccc(C(=O)N[C@@H]4C[C@@H](COC(F)F)Oc5ccccc54)cc32)C(=N)N1` [Example 267, (4R)-N-[(2S,4R)-2-(difluoromethoxymethyl)chro-man-4-yl]-4-[(4R)-4-ethyl-2-imino-4-methyl-6-oxo-hexahydropyrimidin-1-yl]chromane-6-carboxamide], the EC50 is reported as 24 nM. `CC[C@]1(C)CC(=O)N([C@@H]2CCOc3ccc(C(=O)N[C@@H]4C[C@H](COC(F)F)Oc5ccccc54)cc32)C(=N)N1` [Example 268, (4R)-N-[(2R,4R)-2-(difluoromethoxymethyl)chro-man-4-yl]-4-[(4R)-4-ethyl-2-imino-4-methyl-6-oxo-hexahydropyrimidin-1-yl]chromane-6-carboxamide] was tested, and the EC50 was 25 nM. `CC[C@]1(C)CC(=O)N([C@@H]2CCOc3ccc(C(=O)N[C@H]4C[C@H](COC(F)F)Oc5ccccc54)cc32)C(=N)N1` [Example 269, (4R)-N-[(2R,4S)-2-(difluoromethoxymethyl)chro-man-4-yl]-4-[(4R)-4-ethyl-2-imino-4-methyl-6-oxo-hexahydropyrimidin-1-yl]chromane-6-carboxamide] showed an EC50 of 2.9 nM. With `CC[C@]1(C)CC(=O)N([C@@H]2CCOc3ccc(C(=O)N[C@H]4C[C@@H](COC(F)F)Oc5ccccc54)cc32)C(=N)N1` [Example 270, (4R)-N-[(2S,4S)-2-(difluoromethoxymethyl)chro-man-4-yl]-4-[(4R)-4-ethyl-2-imino-4-methyl-6-oxo-hexahydropyrimidin-1-yl]chromane-6-carboxamide] the EC50 was 1.8 nM. In the case of `CCC1(CC)CC(=O)N([C@@H]2CCOc3ccc(C(=O)NC4c5ccc(C(F)(F)F)cc5CC4N)cc32)C(=N)N1` (stereo partly drawn) [Example 271, (4R)-N-[2-amino-5-(trifluoromethyl)indan-1-yl]-4-(4,4-diethyl-2-imino-6-oxo-hexahydropyrimidin-1-yl)chromane-6-carboxamide], the EC50 is reported as 182 nM. `CC1(C)CC(=O)N([C@@H]2CCOc3ccc(C(=O)N[C@@H]4c5cc(Cl)cc(Cl)c5OC[C@@]4(C)O)cc32)C(=N)N1` [Example 273, (4R)-N-[(3S,4R)-6,8-dichloro-3-hydroxy-3-methyl-chroman-4-yl]-4-(2-imino-4,4-dimethyl-6-oxo-hexahydropyrimidin-1-yl)chromane-6-carboxamide] was tested, and the EC50 was 7.8 nM. Work on `CCC1(CC)CC(=O)N(C2CC(C(=O)N(C)C)Oc3ccc(C(=O)N[C@@H]4c5ccccc5C[C@H]4O)cc32)C(=N)N1` (stereo partly drawn) [Example 274, 4-(4,4-diethyl-2-imino-6-oxo-hexahydropyrimidin-1-yl)-N6-[(1R,2R)-2-hydroxyindan-1-yl]-N2,N2-dimethyl-chromane-26,-dicarboxamide] yielded an EC50 of 98.5 nM. In the case of `CCC1(CC)CC(=O)N([C@H]2c3cc(C(=O)N[C@@H]4c5ccccc5OC(C)(C)[C@H]4O)ccc3CC[C@@H]2OC)C(=N)N1` [Example 276, (3S,4S)-4-(4,4-diethyl-2-imino-6-oxo-hexahydropyrimidin-1-yl)-N-[(3S,4R)-3-hydroxy-2,2-dimethyl-chroman-4-yl]-3-methoxy-tetralin-6-carboxamide], the EC50 is reported as 0.6 nM. With `CCC1(CC)CC(=O)N([C@H]2c3cc(C(=O)N[C@@H]4c5ccccc5OC[C@]4(C)O)ccc3O[C@]2(C)COC)C(=N)N1` [Example 278, (2S,3S)-3-(4,4-diethyl-2-imino-6-oxo-hexahydropyrimidin-1-yl)-N-[(3R,4R)-3-hydroxy-3-methyl-chroman-4-yl]-2-(methoxymethyl)-2-methyl-3H-benzofuran-5-carboxamide] the EC50 was 12.2 nM.
